# Test results taken from the NIST ThermoML archive (doi:10.1016/j.jct.2012.02.034).
# ± gives the expanded uncertainty stated by the source.
# Assay: excess molar enthalpy (molar enthalpy of mixing); xn = mol fraction of the nth substance listed
# Conditions: 313.15 K, Fluid (supercritical or subcritical phases), Flow calorimetry
structure (smiles),measurement,setting,value
CCOC(C)=O [ethyl acetate] + O=C=O,excess molar enthalpy,"9000 kPa, x2 = 0.087",-0.108 ± 0.00598 kcal/mol
same,excess molar enthalpy,"9000 kPa, x2 = 0.172",-0.226 ± 0.00717 kcal/mol
same,excess molar enthalpy,"9000 kPa, x2 = 0.256",-0.325 ± 0.00837 kcal/mol
same,excess molar enthalpy,"9000 kPa, x2 = 0.381",-0.46 ± 0.0108 kcal/mol
same,excess molar enthalpy,"9000 kPa, x2 = 0.462",-0.525 ± 0.0122 kcal/mol
same,excess molar enthalpy,"9000 kPa, x2 = 0.542",-0.603 ± 0.0136 kcal/mol
same,excess molar enthalpy,"9000 kPa, x2 = 0.66",-0.684 ± 0.0155 kcal/mol
same,excess molar enthalpy,"9000 kPa, x2 = 0.737",-0.727 ± 0.0163 kcal/mol
same,excess molar enthalpy,"9000 kPa, x2 = 0.814",-0.713 ± 0.0163 kcal/mol
same,excess molar enthalpy,"9000 kPa, x2 = 0.889",-0.636 ± 0.0155 kcal/mol
same,excess molar enthalpy,"9000 kPa, x2 = 0.926",-0.541 ± 0.0184 kcal/mol
same,excess molar enthalpy,"9000 kPa, x2 = 0.963",-0.379 ± 0.0196 kcal/mol
same,excess molar enthalpy,"12000 kPa, x2 = 0.123",-0.1 ± 0.00359 kcal/mol
same,excess molar enthalpy,"12000 kPa, x2 = 0.235",-0.185 ± 0.00502 kcal/mol
same,excess molar enthalpy,"12000 kPa, x2 = 0.338",-0.243 ± 0.00598 kcal/mol
same,excess molar enthalpy,"12000 kPa, x2 = 0.432",-0.279 ± 0.00669 kcal/mol
same,excess molar enthalpy,"12000 kPa, x2 = 0.519",-0.308 ± 0.00717 kcal/mol
same,excess molar enthalpy,"12000 kPa, x2 = 0.599",-0.327 ± 0.00717 kcal/mol
same,excess molar enthalpy,"12000 kPa, x2 = 0.673",-0.335 ± 0.00741 kcal/mol
same,excess molar enthalpy,"12000 kPa, x2 = 0.742",-0.322 ± 0.00789 kcal/mol
same,excess molar enthalpy,"12000 kPa, x2 = 0.806",-0.302 ± 0.00717 kcal/mol
same,excess molar enthalpy,"12000 kPa, x2 = 0.866",-0.263 ± 0.00717 kcal/mol
same,excess molar enthalpy,"12000 kPa, x2 = 0.949",-0.16 ± 0.00574 kcal/mol
same,excess molar enthalpy,"12000 kPa, x2 = 0.975",-0.0887 ± 0.0158 kcal/mol
same,excess molar enthalpy,"15000 kPa, x2 = 0.132",-0.0865 ± 0.00263 kcal/mol
same,excess molar enthalpy,"15000 kPa, x2 = 0.25",-0.151 ± 0.00382 kcal/mol
same,excess molar enthalpy,"15000 kPa, x2 = 0.356",-0.208 ± 0.00478 kcal/mol
same,excess molar enthalpy,"15000 kPa, x2 = 0.452",-0.242 ± 0.0055 kcal/mol
same,excess molar enthalpy,"15000 kPa, x2 = 0.539",-0.274 ± 0.00598 kcal/mol
same,excess molar enthalpy,"15000 kPa, x2 = 0.618",-0.285 ± 0.00621 kcal/mol
same,excess molar enthalpy,"15000 kPa, x2 = 0.724",-0.275 ± 0.00598 kcal/mol
same,excess molar enthalpy,"15000 kPa, x2 = 0.788",-0.245 ± 0.0055 kcal/mol
same,excess molar enthalpy,"15000 kPa, x2 = 0.818",-0.227 ± 0.00574 kcal/mol
same,excess molar enthalpy,"15000 kPa, x2 = 0.875",-0.182 ± 0.0055 kcal/mol
same,excess molar enthalpy,"15000 kPa, x2 = 0.927",-0.124 ± 0.00502 kcal/mol
same,excess molar enthalpy,"15000 kPa, x2 = 0.953",-0.0896 ± 0.00335 kcal/mol
same,excess molar enthalpy,"18000 kPa, x2 = 0.071",-0.0617 ± 0.00287 kcal/mol
same,excess molar enthalpy,"18000 kPa, x2 = 0.137",-0.101 ± 0.00311 kcal/mol
same,excess molar enthalpy,"18000 kPa, x2 = 0.259",-0.166 ± 0.00406 kcal/mol
same,excess molar enthalpy,"18000 kPa, x2 = 0.367",-0.201 ± 0.00454 kcal/mol
same,excess molar enthalpy,"18000 kPa, x2 = 0.463",-0.224 ± 0.00478 kcal/mol
same,excess molar enthalpy,"18000 kPa, x2 = 0.55",-0.237 ± 0.00502 kcal/mol
same,excess molar enthalpy,"18000 kPa, x2 = 0.629",-0.24 ± 0.00526 kcal/mol
same,excess molar enthalpy,"18000 kPa, x2 = 0.7",-0.225 ± 0.00502 kcal/mol
same,excess molar enthalpy,"18000 kPa, x2 = 0.825",-0.18 ± 0.0043 kcal/mol
same,excess molar enthalpy,"18000 kPa, x2 = 0.88",-0.145 ± 0.0043 kcal/mol
same,excess molar enthalpy,"18000 kPa, x2 = 0.931",-0.0989 ± 0.0043 kcal/mol
same,excess molar enthalpy,"18000 kPa, x2 = 0.955",-0.0746 ± 0.0043 kcal/mol
